Data as given in PubChem BioAssay AID1918958 (Molecular Pharmacology Branch, DTP, NCI, 2023).

Test system: NCI-H196 complex spheroid viability
Assay: Anticancer human tumor NCI-H196 cell line growth inhibition [LSD1];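 note: spheroids exposed to agents for 7 days before readout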;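 for viability, T/C: 100% = DMSO vehicle control viability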
Details: for IC50: curve of first compound; for viability, T/C: stronger effect = lower value
In short: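 Multicellular complex spheroids of tumor cells with human endothelial cells (HUVEC) and mesenchymal stem cells; the LSD1 inhibitor iadademstat was combined with standard-of-care or investigational agents. Top concentration at or near clinical Cmax, half-log dilutions; final DMSO ≤0.25%.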

Cn1ncnc1C1c2n[nH]c(=O)c3cc(F)cc(c23)NC1c1ccc(F)cc1 (stereo not given) + NC1CC1c1ccc(-c2cccc(O)c2)cc1
IC50 (second compound 0.1 µM): > 0.1 µM | IC50 (second compound 0.316 µM): > 0.1 µM | IC50 (second compound 1 µM): > 0.1 µM | IC50 (second compound 3.16 µM): > 0.1 µM | IC50 (second compound 10 µM): > 0.1 µM | viability, T/C (second compound 0.1 µM, first compound 0.000316 µM): 96.6% | viability, T/C (second compound 0.1 µM, first compound 0.001 µM): 100% | viability, T/C (second compound 0.1 µM, first compound 0.00316 µM): 102% | viability, T/C (second compound 0.1 µM, first compound 0.01 µM): 100% | viability, T/C (second compound 0.1 µM, first compound 0.0316 µM): 94.3% | viability, T/C (second compound 0.1 µM, first compound 0.1 µM): 98.3% | viability, T/C (second compound 0.316 µM, first compound 0.000316 µM): 104% | viability, T/C (second compound 0.316 µM, first compound 0.001 µM): 106% | viability, T/C (second compound 0.316 µM, first compound 0.00316 µM): 98.2% | viability, T/C (second compound 0.316 µM, first compound 0.01 µM): 102% | viability, T/C (second compound 0.316 µM, first compound 0.0316 µM): 101% | viability, T/C (second compound 0.316 µM, first compound 0.1 µM): 106% | viability, T/C (second compound 1 µM, first compound 0.000316 µM): 105% | viability, T/C (second compound 1 µM, first compound 0.001 µM): 98.9% | viability, T/C (second compound 1 µM, first compound 0.00316 µM): 101% | viability, T/C (second compound 1 µM, first compound 0.01 µM): 103% | viability, T/C (second compound 1 µM, first compound 0.0316 µM): 104% | viability, T/C (second compound 1 µM, first compound 0.1 µM): 106% | viability, T/C (second compound 3.16 µM, first compound 0.000316 µM): 92.2% | viability, T/C (second compound 3.16 µM, first compound 0.001 µM): 99.1% | viability, T/C (second compound 3.16 µM, first compound 0.00316 µM): 102% | viability, T/C (second compound 3.16 µM, first compound 0.01 µM): 102% | viability, T/C (second compound 3.16 µM, first compound 0.0316 µM): 99.2% | viability, T/C (second compound 3.16 µM, first compound 0.1 µM): 92.4% | viability, T/C (second compound 10 µM, first compound 0.000316 µM): 99.1% | viability, T/C (second compound 10 µM, first compound 0.001 µM): 104% | viability, T/C (second compound 10 µM, first compound 0.00316 µM): 95% | viability, T/C (second compound 10 µM, first compound 0.01 µM): 104% | viability, T/C (second compound 10 µM, first compound 0.0316 µM): 97.7% | viability, T/C (second compound 10 µM, first compound 0.1 µM): 91.4%

NS(=O)(=O)OCC1CC(n2ccc3c(NC4CCc5ccccc54)ncnc32)CC1O (stereo not given) + NC1CC1c1ccc(-c2cccc(O)c2)cc1
IC50 (second compound 0.1 µM): > 3 µM | IC50 (second compound 0.316 µM): > 3 µM | IC50 (second compound 1 µM): > 3 µM | IC50 (second compound 3.16 µM): > 3 µM | IC50 (second compound 10 µM): > 3 µM | viability, T/C (second compound 0.1 µM, first compound 0.00949 µM): 83.6% | viability, T/C (second compound 0.1 µM, first compound 0.03 µM): 103% | viability, T/C (second compound 0.1 µM, first compound 0.0949 µM): 68% | viability, T/C (second compound 0.1 µM, first compound 0.3 µM): 82.2% | viability, T/C (second compound 0.1 µM, first compound 0.949 µM): 75.1% | viability, T/C (second compound 0.1 µM, first compound 3 µM): 57.5% | viability, T/C (second compound 0.316 µM, first compound 0.00949 µM): 77.8% | viability, T/C (second compound 0.316 µM, first compound 0.03 µM): 99.8% | viability, T/C (second compound 0.316 µM, first compound 0.0949 µM): 69.7% | viability, T/C (second compound 0.316 µM, first compound 0.3 µM): 80.5% | viability, T/C (second compound 0.316 µM, first compound 0.949 µM): 79.7% | viability, T/C (second compound 0.316 µM, first compound 3 µM): 60.7% | viability, T/C (second compound 1 µM, first compound 0.00949 µM): 72.3% | viability, T/C (second compound 1 µM, first compound 0.03 µM): 83.9% | viability, T/C (second compound 1 µM, first compound 0.0949 µM): 66.2% | viability, T/C (second compound 1 µM, first compound 0.3 µM): 72% | viability, T/C (second compound 1 µM, first compound 0.949 µM): 66% | viability, T/C (second compound 1 µM, first compound 3 µM): 63.6% | viability, T/C (second compound 3.16 µM, first compound 0.00949 µM): 71.6% | viability, T/C (second compound 3.16 µM, first compound 0.03 µM): 68.1% | viability, T/C (second compound 3.16 µM, first compound 0.0949 µM): 64.3% | viability, T/C (second compound 3.16 µM, first compound 0.3 µM): 68.7% | viability, T/C (second compound 3.16 µM, first compound 0.949 µM): 56% | viability, T/C (second compound 3.16 µM, first compound 3 µM): 64.3% | viability, T/C (second compound 10 µM, first compound 0.00949 µM): 64.4% | viability, T/C (second compound 10 µM, first compound 0.03 µM): 87.9% | viability, T/C (second compound 10 µM, first compound 0.0949 µM): 58.6% | viability, T/C (second compound 10 µM, first compound 0.3 µM): 65.8% | viability, T/C (second compound 10 µM, first compound 0.949 µM): 63% | viability, T/C (second compound 10 µM, first compound 3 µM): 57%
